Test results from patent publication US6982142B2, “Methods for screening therapeutically effective agents” (John Wayne Cancer Institute, priority 1997, dated 2006).
Read-outs that look alike come from different tables or passages of the source.

Assays:
MCF-7-AdrR cells [1] = assay: Cell radiolabeling and TLC/LSC analysis of ceramide, glucosylceramide and sphingomyelin in MDR breast cancer cells; format: cell-based, human; settings: adriamycin 2.5, PSC 833 5.0 μM, tamoxifen 5.0 μM alone or combined, 24 h, [3H]palmitic acid
Protocol: Cells. Experiments were conducted using the human MDR breast cancer cell line, MCF-7 AdrR (adriamycin resistant) provided by Drs. Kenneth H. Cowan and Merrill E. Goldsmith, National Cancer Institute. Cells were grown in RPMI-1640 medium containing 10% FBS (fetal bovine serum) and antibiotics as previously described (Lavie, 1997) and cultures were maintained in a humidified 6.5% CO2 atmosphere incubator. Trypsin (0.05%) and EDTA (0.5 mM) were used for subculture. Plastic tissue cultureware, was from Costar (96-well plates) and Corning (6-well plates, 6-cm dishes, T-75 flasks). Limited experiments were conducted using the human MDR epidermoid carcinoma cell line, KBV-1, provided by Dr. Michael M. Gottesman, National Cancer Institute. Cells were maintained as described (Lavie, 1996). Vinblastine was eliminated from the culture medium during the experiments.
Cell Radiolabeling and Lipid/Glycolipid Analysis. To follow lipid metabolism, cells were grown in the presence of tritiated ceramide precursors, L-[^3H]serine (20 Ci/mmol) (American Radiolabeled Chemicals, Inc., St. Louis), and [9, 10-^3H]palmitic acid (50 Ci/mmol) (DuPont NEN). Labeling media were prepared by adding microliter amounts of tritiated compounds (supplied in ethanol or sterile water) to medium containing only 5% FBS. After radiolabeling, 0.1 ml aliquots of medium were removed and analyzed by LSC (Lavie, 1997), in order to determine cellular uptake of the tritiated compounds. Cell monolayers were then rinsed twice with cold phosphate-buffered saline. Ice cold methanol containing 2% acetic acid was added, and cells were scraped free of the substratum (plastic scraper) for lipid extraction using chloroform and water in 1-dram glass vials as described (Lavie, 1997; Lavie, 1996; Bligh and Dyer, 1959). After centrifugation, the resulting organic lower phase of the biphasic extraction was withdrawn, transferred to a glass vial, and evaporated to dryness under a stream of nitrogen.
Radioactivity in glucosylceramide was analyzed by TLC resolution of total lipids (Silica Gel G) using a solvent system containing chloroform/methanol/ammonium hydroxide (80:20:2, v/v/v). Migration of glucosylceramide on TLC was compared with that of commercial standard (glucocerebrosides, Gaucher's spleen, Matreya, Inc., Pleasant Gap, Pa.), and lipid spots, after iodine vapor visualization, were scraped for tritium quantitation by LSC (Lavie, 1997; Lavie, 1996). […] Ceramide and sphingomyelin commercial standards (brain-derived) were from Avanti Polar Lipids, Alabaster, Ala. After iodine visualization of lipids, areas of the chromatogram corresponding to ceramide and sphingomyelin were scraped into minivials containing 0.5 ml water followed by 4.5 ml EcoLume (ICN, Costa Mesa, Calif.), and samples were analyzed for tritium by liquid scintillation spectrometry. Alternative analysis of ceramide consisted of subjecting an aliquot of the total cell lipid extract to mild alkaline hydrolysis (0.1 N KOH in methanol, 1 h at 37° C.) followed by re-extraction (Lavie, 1997). […] The same can also be done without tritium by simply applying 100-200 μg total cell lipid to TLC plates and developing them in the appropriate solvent, then spraying them with 30% H2SO4, charring the plate in an oven at 180° C. for 20 min, and measuring lipid mass by densitometry.

[2] = test system: glucosylceramide synthase; assay: Glucosylceramide synthase radioenzymatic assay on microsomes of Tet-on GCS-transfected clones; format: cell-based, human
Protocol: Glucosylceramide Synthase Assay. To determine the expression of GCS in the hygromycin-resistant clones, a modified radioenzymatic assay was utilized (Lavie, 1997; Shukla, 1990). After incubation in the absence or presence of doxycycline (3 μg/ml, 48 hr), cells were homogenized by sonication in lysis buffer (50 mM Tris-HCl, pH 7.4, 1.0 μg/ml leupeptin, 10 μg/ml aprotinin, 25 μM PMSF). Microsomes were isolated by centrifugation (129,000×g, 60 min). The enzyme assay, containing 50 μg microsomal protein, in a final volume of 0.2 ml, was performed in a shaking water bath at 37° C. for 60 min. The reaction contained liposomal substrate composed of C6-ceramide (1.0 mM), phosphatidylcholine (3.6 mM, MW 786.15), and brain sulfatides (0.9 mM, MW 563). The liposomal substrate was prepared by mixing the components, evaporating the solvents under a stream of nitrogen, and sonicating in water over ice for 1-min using a microtip at 50% output (Kontes, Micro Ultrasonic Cell Disrupter). Other reaction components included sodium phosphate buffer (0.1 M) pH 7.8, EDTA (2.0 mM), MgCl2 (10 mM), dithiothreitol (1.0 mM), β-NAD (2.0 mM), and [^3H]UDP-glucose (0.5 mM). Radiolabeled and unlabeled UDP-glucose were diluted to achieve the desired radiospecific activity (4,700 dpm/nmol). To terminate the reaction, tubes were placed on ice and 0.5 ml isopropanol and 0.4 ml Na2SO4 were added. After brief vortex mixing, 3 ml t-butyl methyl ether was added and the tubes were mixed for 30 sec. After centrifugation, 0.5 ml upper phase which contained GC, was withdrawn and mixed with 4.5 ml EcoLume for analysis of radioactivity by liquid scintillation spectroscopy.
After co-transfection of pTRE-GCS and pTK-Hyg into clone 1 and clone 16 of MCF-7 Tet-on cells, 65 hygromycin-resistant clones were selected. […] Compared with a basal level of 17.2±0.1 pmol GC in MCF-7 wt cells, doxycycline-induced GCS activity in MCF-7/GCS12, […] and MCF-7/GCS14 was to 167.4±17.2, 183.3±12.4, and 90.2±2.76 pmol GC, respectively (FIG. 13A). There were no differences in either basal or doxycycline-induced GCS activity in transfection control cells (TC) or in the basal level of GCS in MCF-7 wt cells (FIG. 13A). In MCF-7/GCS13 and MCF-7/GCS14, the doxycycline-inducible GCS activities were 1.6-fold and 4.1-fold, respectively, above untreated cells. The MCF-7/GCS14 clone was designated MCF-7/GCS, and this clone was used in further experiments.

GCS mRNA = assay: Northern blot of GCS mRNA expression in MCF-7/GCS cells; format: cell-based, human
Protocol: (A) Northern Blot showing regulated expression of GCS mRNA in MCF-7 and MCF-7/GCS cells incubated with the indicated concentrations of doxycycline (dox, μg/ml). Total RNA per lane was 15 micrograms. Ethidium bromide-stained RNA (28 S) was used as a control for even loading. Densities of GCS/28 S RNA (×100) in MCF-7/GCS cells were 16, 18, 97, 256 at 0, 0.1, 1.0 and 3.0 μg/ml doxycycline, respectively. (B) Dose-response of GCS activity to doxycycline. Cells were incubated for 96 hr in medium containing the indicated concentrations of doxycycline. GCS activity was analyzed by radioenzymatic assay. * p<0.01, **p<0.001 compared with MCF-7 cells. (C) Doxycycline-induced resistance to ceramide. Cells were pretreated with the indicated concentrations of doxycycline for 48 hr, seeded in 96-well plates, and treated the following day with 5 μM C6ceramide in RPMI-1640 medium containing 5% FBS. Cell viability was determined after 96 hr. Data represent the mean ±SD of six replicates from two independent experiments. Control cells were cultured in medium without C6-ceramide. * p<0.001 compared to MCF-7 cells; **p<0.001, compared to MCF-7 cells exposed to 1.0 μg/ml doxycycline.
RNA Analysis. RNA was extracted from cells using the single-step method described by Chomczynski and Sacchi (Chomczynski, 1987). Equal amounts of total RNA (15 μg) were denatured in 59% formamide/2.2 M formaldehyde, size separated by electrophoresis on 1% agarose-formaldehyde, and then blotted onto nitrocellulose-plus (Sambrook, 1989). GCS cDNA was prepared from pCG-2 plasmid, digested with EcoR I, and Hind III (Stratagene, La Jolla, Calif.). […]
If ceramide resistance is induced by GCS expression in MCF-7/GCS cells, the resistance response should be tightly correlated with the level of the inducer, doxycycline. It was determined that increasing doxycycline concentrations correlated closely with increased expression of GCS, which in turn correlated well with increased resistance of the cells to C6ceramide. […]

MCF-7-wt cells = assay: Cytotoxicity assay (Promega) in chemosensitive wild-type breast cancer cells; format: cell-based, human; settings: C6-ceramide at increasing concentrations, 72 hr
MCF-7/GCS cells = format: cell-based, human; settings: MCF-7/GCS vs MCF-7
Protocol: (§1) Cytotoxicity Assay. The assay was performed as previously described (Lavie, 1997). […] Cultures were incubated at 37° C. for 24 hr before addition of drug. Drugs were added in FBS-free medium (0.1 ml), and cells were cultured at 37° C. for the indicated periods. Drug cytotoxicity was determined using the Promega 96 Aqueous cell proliferation assay kit. Absorbance at 490 nm was recorded using an ELISA reader (Molecular Devices, San Diego, Calif.).
(§2) Adriamycin was used to assess the influence of GCS transfection on cellular response to anthracyclines. After pretreatment with doxycycline for two days, MCF-7/GCS cells were incubated with increasing concentrations of adriamycin for four days. […] It was observed that MCF-7/GCS cells were resistant to ceramide toxicity as well. […] However, the EC50 in the TC group was nearly identical with that of MCF-7 cells, there being no statistical difference between the two groups (FIG. 14C).

MCF-7 cells = assay: cells; format: cell-based; settings: Homo sapiens, MCF7, 96 h, read-out: EC50 (cytotoxicity)
Protocol: as §1, §2

MCF-7-AdrR cells [3] = assay: cells; settings: Homo sapiens, read-out: cell viability

CC/C(=C(\c1ccccc1)c1ccc(OCCN(C)C)cc1)c1ccccc1 [tamoxifen, Tamoxifen]
ceramide level, increase over control (MCF-7-AdrR cells [1]): 0.3 fold

C[C@H]1c2cccc(O)c2C(=O)C2=C(O)[C@]3(O)C(=O)C(C(N)=O)=C(O)[C@@H](N(C)C)[C@@H]3[C@@H](O)[C@@H]21.Cl [doxycycline, Doxycycline hydrochloride]
doxycycline-induced GCS activity ([2]; clone MCF-7/GCS3 (so in the source), doxycycline 3 μg/ml): 183.3±12.4 pmol GC | doxycycline-induced GCS activity ([2]; clone MCF-7/GCS12, doxycycline 3 μg/ml): 167.4±17.2 pmol GC | doxycycline-inducible GCS activity above untreated cells ([2]; clone MCF-7/GCS13): 1.6 fold | doxycycline-inducible GCS activity above untreated cells ([2]; clone MCF-7/GCS14): 4.1 fold | doxycycline-induced GCS activity ([2]; clone MCF-7/GCS14, doxycycline 3 μg/ml): 90.2±2.76 pmol GC | GCS mRNA density (GCS band/28 S RNA×100) (GCS mRNA; doxycycline 0.1 μg/ml): 18 | GCS mRNA density (GCS band/28 S RNA×100) (GCS mRNA; doxycycline 1.0 μg/ml): 97 | GCS mRNA density (GCS band/28 S RNA×100) (GCS mRNA; doxycycline 3.0 μg/ml): 256

CCCCCCCCCCCCC/C=C/[C@@H](O)[C@H](CO)NC(=O)CCCCC [C6-ceramide, N-hexanoylsphingosine]
cell viability, dose-response (MCF-7-wt cells): dose dependent decrease in viability | EC50 in MCF-7/GCS cells relative to EC50 in MCF-7 cells (MCF-7/GCS cells): 4 fold | EC50 in MCF-7/GCS cells relative to EC50 in MCF-7 cells (MCF-7/GCS cells; listed as ceramide): 5 fold | EC50 (MCF-7 cells): 3.1 ± 0.5 µM | viability at 10 µM (MCF-7-AdrR cells [3]; 72 h): 84% | viability at 5 µM (MCF-7-AdrR cells [3]): 86%
